Key:
[1] = test system: MES-SA-Dx5; assay: Cell viability after 4 hours (Cell Titer Glo), MES-SA-Dx5; format: cell-based, human; conditions: 4 h incubation; read-out: Activities [μM] MES-SA-Dx5 (p61)
Procedure: Human ovarian cancer cell lines OVCAR-3 (p 41), SKOV-3 (p 35) and the human uterine sarcoma cell line MES-SA-Dx5 (p 61) (multi-drug resistant clone), the human pancreatic cancer cell line Panc-1 (passage number 18), and human triple negative breast cancer cell line MDA-MB-231 (passage number 47) were grown in ATCC recommended medium, 10% fetal bovine serum, 100 IU/ml penicillin, 100 microg/ml streptomycin. Cells were typically seeded (2,000 cells per well) into 96 well plates and media was replaced after 48 hours of incubation. […] Each Phor-18-hFSH-β81-89 conjugate provided in lyophilized form was dissolved in saline and added to cells. The duration of incubation was 4 hours at 37° C. Cell viability was assessed after 4 hours using a luminometric assays (Promega, Cell Titer Glo, G755B, lot #00000031421). Controls contained saline or 0.1% triton as reference for 0 and 100% cell death, respectively.
Data were processed and analyzed using GraphPad Prism version 5.00 for Windows, GraphPad Software, San Diego Calif. USA, www.graphpad.com”. Statistical analysis for significance was determined by a two-tailed Student's T-test. Each study was conducted to achieve an N of at least 6.
In vitro activities were expressed as IC50 values for each cell line, time point and compound tested that were calculated using the Hill equation (Graph Pad Prizm software).

[2] = test system: MDA-MB-435S.luc xenograft; assay: Mouse xenograft model of breast cancer, βCG fusion constructs; format: in vivo, mice; conditions: weekly bolus injections, days 13, 19, 25
Procedure: This example describes in vivo studies in a mouse xenograft model of breast cancer with various types and doses of βCG- and LHRH-fusion constructs.
Female Nu/Nu mice were injected subcutaneously with a MDA-MB-435S.luc/Matrigel HC suspension (1×10^6 cells). In brief, treatment started on day 13 after tumor cell injection and continued on day 19 and 25. […] The doses for weekly injections were 5, 1 and 0.01 mg/kg body weight, given as a bolus single injection.
The effect of cytolytic peptide injections on the primary tumors is illustrated in FIG. 8. In brief, the FIGS. 8A-8C show tumor volume during the course of the study for each individual peptide. FIGS. 8D-8G show tumor characteristics at necropsy: tumor volume (D), tumor weight (E), live tumor cells (F), tumor conditions (G).
Treatment efficacy was calculated as difference between measurements at the beginning of treatment compared to the measurement at the end of study (FIG. 8H-8I). […] Viability of cells in the tumors was determined at the end of the study when tumors were measured for luciferase activity.

[3] = test system: MDA-MB-435; assay: Fluorescence microscopy, mechanism of action in MDA-MB-435 cells; format: cell-based, human; conditions: 10 μM, 5 minutes exposure
Procedure: In brief, human breast cancer cells (MDA-MB-435, passage #252) were seeded onto culture dishes. The following markers were introduced prior to adding EP100: DRAQ5™ (Alexis Corporation)—blue—was used for staining of the nucleus and MnoTracker® Red CMXRos (M7512) (Molecular Probes, Inc. OR) were applied for visualizing intact mitochondria. Cell membranes were stained with wheat germ alexa fluor green conjugates (Molecular Probes, Inc. OR).
Cells were loaded first with Mitotracker dye, according to the manufacturers recommendation. […] Culture dishes with saline only served as controls. The supernatant was removed and the remaining cells prepared for fluorescence microscopy imaging.

[4] = test system: MDA-MB-435S xenograft; assay: MDA-MB-435S xenograft, kinetics of tumor destruction after a single injection; format: in vivo, mice; conditions: single i.v. injection, 0.2 and 2 mg/kg
Procedure: In brief, Nu/Nu female mice, outbred strain, age 5 weeks (Charles River), were injected (s.c.) into the interscapular region with a MDA-MB-435S (passage #249)/Matrigel suspension (2.4×10^6 cells/mouse) as described in Example 10. […] The doses were given as a single bolus intravenous injection via lateral tail vein.
Mice were sacrificed 1, 2 and 16 hours after treatment with Phor 18-LHRH (338613) or saline. At study endpoint body weight, tumor weights were determined and tumors were fixed in phosphate buffered 10% formalin.

[5] = test system: MDA-MB-435S xenograft; assay: MDA-MB-435S xenograft, multiple dose regimen; format: in vivo, mice; conditions: 0.002 and 0.2 mg/kg
Procedure: In order to determine the minimal effective dose necessary to reduce MDA-MB-435S xenograft weights in a multiple dose regimen, Nu/Nu female mice, outbred strain, age 8 weeks (Charles River), were injected (s.c.) into the interscapular region with a MDA-MB-435S (passage #253)/Matrigel suspension (2×10^6 cells/mouse) as previously described above. […] The doses were given as a single bolus intravenous injection via lateral tail vein on days 15, 16, 17, 20, 21, 22, 23, 27, 28, 29, 30, 33, 34, 35, 36, 37, 38, 40, 41, 42 after tumor cell inoculation. Saline injections served as control groups.
Each treatment group consisted of 16 mice. During the entire study tumor volumes were recorded twice weekly. Final necropsy was conducted on day 45 after tumor cell injection. […] due to occlusion of the tail vein in most mice. At study endpoint body weight, tumor weights were determined and fixed in phosphate buffered 10% formalin.

[6] = test system: MDA-MB-435S.luc cells; assay: Cell toxicity screening (MTT assay) in MDA-MB-435S.luc breast cancer cells; format: cell-based, human
Excerpt: This example describes screening for cell toxicity (IC50) and hemolytic activity using a human breast cancer cell line.
Eighteen βCG-ala and eight LHRH conjugated fusion constructs were studied and compared to Phor21-βCG-ala and unconjugated Phor21 and Phor 18 (338913)=CLIP71 peptides. The human breast cancer cell line MDA-MB-435S.luc, which over expresses chorionic gonadotrophin (CG) and luteinizing hormone-releasing hormone (LHRH) receptors, was used to screen at passage numbers 248-252. The MDA-MB-435S.luc cell line was constructed from the MDA-MB-435S cell line obtained from the American Type Cell Culture Collection by stable transfection with the plasmid PRC/CMV-luc containing the Photinus pyralis luciferase gene and an […] by lipofection. The stably transfected cell line was selected using G418 and the clones with the highest expression for the luciferase gene were tested for their LH and LHRH receptor expression.
MDA-MB-435S.luc cells were grown in Leibovitz's L 15 medium, 10% fetal bovine serum, 0.01 mg/ml bovine insulin, 100 IU/ml penicillin, 100 microg/ml streptomycin. The cells were cultured in tight closed flasks. […]
Data were processed and analyzed using Graph Pad Prizm 4™ software (Graph Pad Prizm, Inc). Statistical analysis for significance was determined by a two-tailed Student's T-test. […]

| Substance | IC50 [1] | Tumor volume compared to saline controls [2] | Plasma membrane (fluorescence microscopy) [3] | Time after injection to destruction of tumors [4] | Tumor response [5] | Histological examination of tumors ([5]; H&E) | fold more potent (toxic) than Phor21-βCG-ala [6] |
| --- | --- | --- | --- | --- | --- | --- | --- |
| KFAKFAK KFAKFAK KFAK [Phor18] | 28.1 ± 2.5 µM | ineffective | – | – | – | – | – |
| KFAKFAKKFAKFAKKFAKQHWSYGLRPG [Phor18-LHRH] | – | – | disintegration of the plasma membrane | 1 h | tumor regression | eradication of tumor cells | 2 fold |
